≈ marks a conversion by molar mass, not a printed value. Entries after “also recorded” stand apart in the source; their conditions may differ. Numbered stars: 1 amine (or outer) side, 2 acyl side, 3 side chain; on linkers, the order of the positions; unused ones are H or OH. Bridge positions count the residues as written; N and C are the ends. Square brackets hold non-standard residues; d marks the D form. Peptide text beside a SMILES is read from it. * marks the point of attachment. pTerphenylCO(4''-OnC5H11) = CCCCCOc1ccc(-c2ccc(-c3ccc(C(=O)*)cc3)cc2)cc1; Orn(4R-OH,5R-OH) = O=C([C@H](C[C@@H](O)[C@@H](O)N[*:3])N[*:1])[*:2]; hTyr(3S-OH,4S-OH) = N[C@H](C(=O)O)[C@H](O)[C@@H](O)c1ccc(O)cc1; Pro(3S-OH,4S-Me) = C[C@H]1CN[C@H](C(=O)O)[C@H]1O; Hyp = O=C(O)[C@@H]1C[C@@H](O)CN1
Experiments:
[1] = tested on: Candida parapsilosis; details: cited from earlier work
[2] = tested on: Candida albicans; details: cited from earlier work
[3] = tested on: Candida albicans 10231 biofilms; assay: Pre-formed biofilm treatment assay (microscopy, CFU, metabolic activity); format: cell-based; details: liposomes at 1.25 mg/mL or equivalent free drug; twenty-four hours
Excerpt: (a) A set of representative differential interference contrast microscopy images of Candida albicans 10231 biofilms after twenty-four hours of treatment with 1×, 5×, and 10× anidulafungin loaded liposomes or equivalent free drug. (b) A bar graph showing Candida albicans 10231 biofilm colony-forming units (CFU) twenty-four hours after treatment with 1×, 5×, and 10× anidulafungin loaded liposomes or equivalent free drug (**p<0.01, unpaired two-tailed t-test, n=4). (c) A bar graph showing relative metabolic activity of Candida albicans 10231 biofilm cells twenty-four hours after treatment with 1×, 5×, and 10× anidulafungin loaded liposomes or equivalent free drug (*p<0.05, **p<0.01, ***p<0.001, ****p<0.0001, one-way ANOVA with Tukey's post hoc analysis, n=4). […] of untreated cells are shown. Negative controls lacking fungi were included in each study.
The inventors compared anidulafungin-loaded liposomes with AmBisome®, a commercially-available liposomal amphotericin B, for activity against Candida albicans 10231 biofilms. AmBisome® localizes to the fungal cell wall. See, Adler-Moore & Proffitt, Journal of Antimicrobial Chemotherapy, 49(1), 21-30 (2002) and Walker et al., mBio, 9(1), e02383-17 (2018). The anidulafungin-loaded liposomes performed as AmBisome®, reducing fungal burden by five-fold after only twenty-four hours. See, FIG. 4. […]

[4] = cited from earlier work
[5] = tested on: human cells; details: compared to many other antifungals; cited from earlier work

## CCCCCOc1ccc(-c2ccc(-c3ccc(C(=O)N[C@H]4C[C@@H](O)[C@@H](O)NC(=O)[C@@H]5[C@@H](O)[C@@H](C)CN5C(=O)[C@H]([C@@H](C)O)NC(=O)[C@H]([C@H](O)[C@@H](O)c5ccc(O)cc5)NC(=O)[C@@H]5C[C@@H](O)CN5C(=O)[C@H]([C@@H](C)O)NC4=O)cc3)cc2)cc1 [Anidulafungin, 1-[(4R,5R) 4,5-dihydroxy-N2-[[4″-(pentyloxy)[1,1′:4′,1″-terphenyl]-4-yl]carbonyl]-L-ornithine] echinocandin B] ({pTerphenylCO(4''-OnC5H11)}-[Orn(4R-OH,5R-OH)]T[Hyp][hTyr(3S-OH,4S-OH)]T[Pro(3S-OH,4S-Me)]; lactam 1-C)
[1]
  minimum inhibitory concentration (MIC): 4 µg/mL (≈ 3.51 µM)
[2]
  minimum inhibitory concentration (MIC): 0.25 µg/mL (≈ 0.219 µM)
[3]
  metabolic activity compared to untreated controls: did not reduce metabolic activity
[4]; ethanol
  solubility in ethanol: slightly soluble
[4]; water
  solubility in water: practically insoluble; also recorded: not freely soluble
[5]
  toxicity to human cells: reduced toxicity to human cells

Source: patent US11273124B2, “Antifungal nanoparticles for targeted treatment of fungal infections” (priority 2019, dated 2022)
